Assay results reported in patent US20080032950A1, “Neurologically-Active Compounds” (The University of Sydney, priority 2004, published 2008).
Read-outs that look alike come from different tables or passages of the source.

Legend:
[1] = target: T1, GABAC (ρ1) (Homo sapiens, UniProt P24046); assay: Two-electrode voltage clamp on ρ1 GABAC receptors expressed in Xenopus oocytes; type: cell-based; conditions: for Selectivity (receptor subtype preferred): among GABAA, GABAB, GABAC; for Selectivity (fold): for GABAC over GABAA and GABAB
T1 construct: expressed in transfected cells; host or cells: Xenopus laevis oocytes injected with mRNA
T1 sequence (P24046 22-479): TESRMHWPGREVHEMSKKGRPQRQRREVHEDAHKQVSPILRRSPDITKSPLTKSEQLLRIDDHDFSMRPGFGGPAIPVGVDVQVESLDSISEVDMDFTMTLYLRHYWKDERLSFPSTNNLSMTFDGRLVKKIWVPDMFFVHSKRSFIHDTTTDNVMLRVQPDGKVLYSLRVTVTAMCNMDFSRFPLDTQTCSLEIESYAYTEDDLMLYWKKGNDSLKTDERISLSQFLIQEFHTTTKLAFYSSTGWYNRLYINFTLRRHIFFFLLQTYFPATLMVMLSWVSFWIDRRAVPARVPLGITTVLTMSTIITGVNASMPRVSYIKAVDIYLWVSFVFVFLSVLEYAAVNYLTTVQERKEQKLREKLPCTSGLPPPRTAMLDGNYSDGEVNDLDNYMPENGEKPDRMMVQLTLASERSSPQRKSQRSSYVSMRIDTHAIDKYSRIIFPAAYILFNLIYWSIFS
Protocol: (§1) The activity of compounds (15), (16), (17), (18) and (19) on GABA receptor sub-types were determined as described in Chebib, M., Mewett, K. N., Johnston, G. A. R., 1998, “GABAC receptor antagonists differentiate between human ρ1 and ρ2 receptors expressed in Xenopus oocytes”, European Journal of Pharmacology 357, 227-234.
(§2) In this method, oocytes were harvested from Xenopus laevis and defolliculated. The oocytes were then stored in ND96 solution (96 mM NaCl, 2 mM KCl, 1.8 mM CaCl2.2H2O, 1 mM MgCl2.6H2O, 5 mM HEPES (hemi-Na), pH 7.5) supplemented with 2.5 mM sodium pyruvate, 0.5 mM theophylline and 50 μgml^−1 gentamycin. The storage solution was changed daily.
(§3) Stage V-VI oocytes were injected with mRNA (10 ng/50 nl) and then stored at 16° C. Recordings of receptor activity were obtained after two to eight days by a two-electrode voltage clamp by means of a Geneclamp 500 amplifier (Axon Instruments Inc., Foster City, Calif.), a MacLab 2e recorder (AD Instruments, Sydney, NSW) and Chart version 3.6.3 program. Oocytes were voltage clamped at −60 mV and the preparation was continually perfused with ND96 solution at room temperature. Known concentrations of agonists and antagonists dissolved in ND96 were applied in the absence and presence of GABA respectively until maximum current was reached, at which time the oocyte was washed for five to ten minutes to allow complete recovery of response to a known dose of GABA. In the case of antagonists, two dose response curves were conducted on the same cell to enable calculation of single point estimates: a GABA dose-response curve and a GABA dose-response curve in the presence of a known concentration of antagonist. All compounds were tested on oocytes from at least three harvests.
The activity of this compound on the GABA receptor sub-types was determined by the same procedure as described in Example 2 for compounds (15) to (19). (±)-3-Aminocyclopente-1-nyl)methylphosphinic acid (200 μM) had no effect alone on ρ1 GABAC receptors but in the presence of 1 μM GABA inhibited the response by 65%.

[2] = target: T2, GABAA (α1β2γ2L) (Homo sapiens, UniProt P14867+P47870); assay: Two-electrode voltage clamp on GABAA receptors expressed in Xenopus oocytes; type: cell-based; conditions: for GABAA (α1β2γ2L) activity (type of action): Xenopus oocytes, voltage clamp -60 mV
T2 construct: expressed in transfected cells; host or cells: Xenopus laevis oocytes injected with mRNA
T2 sequence (P14867 28-456): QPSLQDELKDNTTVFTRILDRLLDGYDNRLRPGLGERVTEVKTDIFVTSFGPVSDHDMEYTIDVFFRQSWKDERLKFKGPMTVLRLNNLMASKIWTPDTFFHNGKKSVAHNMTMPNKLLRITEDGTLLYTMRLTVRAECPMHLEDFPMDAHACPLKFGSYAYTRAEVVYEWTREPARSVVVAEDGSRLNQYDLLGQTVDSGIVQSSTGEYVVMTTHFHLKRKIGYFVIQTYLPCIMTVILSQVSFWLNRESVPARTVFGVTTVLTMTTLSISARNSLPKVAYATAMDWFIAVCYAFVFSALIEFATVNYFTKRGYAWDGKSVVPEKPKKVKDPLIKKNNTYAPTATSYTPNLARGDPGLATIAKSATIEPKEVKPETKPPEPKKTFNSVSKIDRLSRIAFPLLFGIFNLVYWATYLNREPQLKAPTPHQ
T2 sequence (P47870 25-512 limits assumed): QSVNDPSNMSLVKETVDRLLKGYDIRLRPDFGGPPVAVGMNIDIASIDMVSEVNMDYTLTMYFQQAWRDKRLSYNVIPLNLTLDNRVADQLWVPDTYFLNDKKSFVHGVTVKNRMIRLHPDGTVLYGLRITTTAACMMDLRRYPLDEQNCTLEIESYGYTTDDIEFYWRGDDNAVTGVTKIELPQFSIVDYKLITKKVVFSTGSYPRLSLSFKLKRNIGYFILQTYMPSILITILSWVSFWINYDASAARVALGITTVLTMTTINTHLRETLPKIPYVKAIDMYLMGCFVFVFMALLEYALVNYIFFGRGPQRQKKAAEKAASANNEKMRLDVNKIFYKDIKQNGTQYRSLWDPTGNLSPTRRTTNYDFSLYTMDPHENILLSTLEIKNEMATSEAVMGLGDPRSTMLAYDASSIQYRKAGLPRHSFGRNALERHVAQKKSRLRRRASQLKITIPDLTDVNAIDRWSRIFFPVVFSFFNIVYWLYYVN
T2 sequence (P18507 40-475 partner): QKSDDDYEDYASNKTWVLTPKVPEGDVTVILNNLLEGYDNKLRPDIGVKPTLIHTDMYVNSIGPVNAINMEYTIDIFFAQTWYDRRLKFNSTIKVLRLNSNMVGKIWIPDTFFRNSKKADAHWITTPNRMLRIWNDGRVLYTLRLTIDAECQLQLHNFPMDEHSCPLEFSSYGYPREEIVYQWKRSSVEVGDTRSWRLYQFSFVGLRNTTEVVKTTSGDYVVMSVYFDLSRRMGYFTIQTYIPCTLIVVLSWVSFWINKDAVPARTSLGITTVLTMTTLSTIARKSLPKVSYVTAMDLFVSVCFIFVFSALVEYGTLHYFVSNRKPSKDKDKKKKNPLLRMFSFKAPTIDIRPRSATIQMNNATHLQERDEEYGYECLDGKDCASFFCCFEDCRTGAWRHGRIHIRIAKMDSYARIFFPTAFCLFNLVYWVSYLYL
Protocol: as §1, §2, §3

[3] = target: T3, GABAB (GB1) (Homo sapiens, UniProt Q9UBS5); assay: Two-electrode voltage clamp on GABAB receptors expressed in Xenopus oocytes; type: cell-based; conditions: for GABAB (GB1) activity (type of action): voltage clamp -60 mV
T3 construct: expressed in transfected cells; host or cells: Xenopus laevis oocytes injected with mRNA
T3 sequence (Q9UBS5 20-961, species assumed): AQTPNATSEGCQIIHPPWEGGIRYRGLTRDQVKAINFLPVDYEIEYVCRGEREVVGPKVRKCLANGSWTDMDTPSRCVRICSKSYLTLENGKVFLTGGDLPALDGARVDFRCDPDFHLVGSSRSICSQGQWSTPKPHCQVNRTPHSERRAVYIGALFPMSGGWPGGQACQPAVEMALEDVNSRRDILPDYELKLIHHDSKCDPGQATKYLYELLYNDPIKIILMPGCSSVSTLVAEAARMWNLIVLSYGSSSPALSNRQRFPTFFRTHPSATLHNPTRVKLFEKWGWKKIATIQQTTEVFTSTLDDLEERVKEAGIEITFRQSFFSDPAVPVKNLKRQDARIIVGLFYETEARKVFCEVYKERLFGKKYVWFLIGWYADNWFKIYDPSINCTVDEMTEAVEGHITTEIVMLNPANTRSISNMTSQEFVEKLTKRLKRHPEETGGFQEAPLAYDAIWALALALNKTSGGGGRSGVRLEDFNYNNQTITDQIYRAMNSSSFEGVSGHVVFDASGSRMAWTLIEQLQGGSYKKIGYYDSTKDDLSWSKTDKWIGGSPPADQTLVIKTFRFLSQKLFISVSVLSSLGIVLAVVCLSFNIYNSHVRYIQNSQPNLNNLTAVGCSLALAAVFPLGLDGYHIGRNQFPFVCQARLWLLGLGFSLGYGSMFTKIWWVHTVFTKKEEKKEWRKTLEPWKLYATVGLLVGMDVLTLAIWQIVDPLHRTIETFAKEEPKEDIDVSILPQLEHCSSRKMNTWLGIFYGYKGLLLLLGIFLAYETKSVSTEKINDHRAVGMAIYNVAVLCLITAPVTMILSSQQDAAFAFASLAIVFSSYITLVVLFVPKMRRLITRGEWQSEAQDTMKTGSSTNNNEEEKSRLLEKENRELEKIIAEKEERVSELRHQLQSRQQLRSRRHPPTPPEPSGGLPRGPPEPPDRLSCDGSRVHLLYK
T3 sequence (O75899 42-941 partner, species assumed): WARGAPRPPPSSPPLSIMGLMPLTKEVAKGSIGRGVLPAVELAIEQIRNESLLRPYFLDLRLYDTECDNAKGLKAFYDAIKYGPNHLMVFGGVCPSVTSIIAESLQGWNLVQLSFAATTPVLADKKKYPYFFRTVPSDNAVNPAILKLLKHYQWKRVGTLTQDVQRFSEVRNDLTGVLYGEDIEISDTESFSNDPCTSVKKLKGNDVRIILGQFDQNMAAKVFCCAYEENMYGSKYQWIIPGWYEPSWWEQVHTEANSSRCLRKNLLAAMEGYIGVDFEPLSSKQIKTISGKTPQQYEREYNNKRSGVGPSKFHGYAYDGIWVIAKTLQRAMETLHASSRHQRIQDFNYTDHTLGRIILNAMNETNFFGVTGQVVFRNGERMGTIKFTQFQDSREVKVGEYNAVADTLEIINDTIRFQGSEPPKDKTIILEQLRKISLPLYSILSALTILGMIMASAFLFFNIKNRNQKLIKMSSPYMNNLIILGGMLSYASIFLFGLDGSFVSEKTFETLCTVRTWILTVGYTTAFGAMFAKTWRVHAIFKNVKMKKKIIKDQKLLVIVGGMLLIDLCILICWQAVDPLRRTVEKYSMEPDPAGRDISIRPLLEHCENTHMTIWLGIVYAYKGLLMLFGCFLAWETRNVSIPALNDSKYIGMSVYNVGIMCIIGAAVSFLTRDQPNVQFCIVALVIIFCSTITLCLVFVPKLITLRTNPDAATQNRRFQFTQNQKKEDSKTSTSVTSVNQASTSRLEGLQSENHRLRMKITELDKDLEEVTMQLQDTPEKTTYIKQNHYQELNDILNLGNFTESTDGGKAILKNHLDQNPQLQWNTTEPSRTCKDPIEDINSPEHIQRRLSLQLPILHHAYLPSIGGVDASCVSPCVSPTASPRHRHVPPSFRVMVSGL
Protocol: as §1, §2, §3

[4] = target: GABAC receptors; conditions: antagonist; Woodward et al, 1993; cited from earlier work
[5] = target: GABAC receptor (Homo sapiens, UniProt P24046); conditions: cited from earlier work
Sequence of GABAC receptor (P24046 22-479): as the sequence (P24046 22-479) above

[6] = Xenopus oocytes, voltage clamp -60 mV

Row | Compound | GABAC (ρ1) activity (type of action) [1, 6] | Selectivity (receptor subtype preferred) [1] | Selectivity (fold) [1] | IC50 [2] | GABAA (α1β2γ2L) activity (type of action) [2] | GABAB (GB1) activity (type of action) ([3]; Xenopus oocytes) | IC50 [3] | Kb [4] | other results
1 | CP(=O)(O)C1=CCC(N)C1 (racemic) [Compound 15, (±)-(4-Aminocyclopent-1-enyl)methylphosphinic acid] | Antagonist | GABAC | ˜50x | > 300 µM | Antagonist | Partial Agonist | – | – | –
2 | CCP(=O)(O)C1=CCC(N)C1 (racemic) [Compound 16, (±)-(4-Aminocyclopent-1-enyl)ethylphosphinic acid] | Antagonist | GABAC | ˜25x | > 600 µM | Antagonist | Antagonist | > 300 µM | – | –
3 | CC(C)P(=O)(O)C1=CCC(N)C1 (racemic) [Compound 17, (±)-(4-Aminocyclopent-1-enyl)isopropylphosphinic acid] | Antagonist | GABAC | ˜50x | > 600 µM | Antagonist | Antagonist | > 300 µM | – | IC50 [1]: 6.34 µM
4 | CCCCP(=O)(O)C1=CCC(N)C1 (racemic) [Compound 18, (±)-(4-Aminocyclopent-1-enyl)butylphosphinic acid] | Antagonist | GABAC | ˜100x | > 300 µM | Antagonist | Antagonist | ~300 µM | – | –
5 | NC1CC=C(P(=O)(O)Cc2ccccc2)C1 (racemic) [Compound 19, (±)-(4-Aminocyclopent-1-enyl)benzylphosphinic acid] | Antagonist | – | – | – | Antagonist | – | – | – | IC50 ([1]; Xenopus oocytes, voltage clamp -60 mV, read-out: GABAC (ρ1) IC50): > 300 µM; GABAB (GB1) effect ([3]; at ~300 μM, Xenopus oocytes): (No effect ˜ 300 μM)
6 | NCCC[PH](=O)O [CGP27492, 3-aminopropylphosphinic acid] | – | – | – | – | – | – | – | 0.8 µM | –
7 | CP(=O)(O)CCCN [CGP35024, (3-aminopropyl)methylphosphinic acid] | – | – | – | – | – | – | – | 0.8 µM | –
8 | NCCCP(=O)(O)O [Compound 3-APA, 3-aminopropylphosphonic acid] | – | – | – | – | – | – | – | 1.8 µM | –
9 | (1,2,5,6-tetrahydropyridine-4-yl)methylphosphinic acid [TPMPA] | – | – | – | – | – | – | – | – | Kb ([5]; antagonist, Murata et al, 1996, Ragozzinno et al, 1996, read-out: KB at GABAC receptors): 2.1 µM; IC50 ([5]; read-out: Concentration producing 50% inhibition of GABAC receptor activation): 2.1 µM
